In US20080221092A1, “Heterobicyclic metalloprotease inhibitors” (priority 2006, published 2008) one finds IC50 data, which are given here for 18 molecules.

Assay [1] concerns the target T1, catalytic domain of MMP-3 enzyme (Homo sapiens, UniProt P08254).
T1 construct: stock solution of the catalytic domain of MMP-3 enzyme (Biomol, Cat. No. SE-109); purchased Biomol SE-109
Nature of the assay: Assay for determining MMP-3 inhibition (fluorescent substrate NFF-3). The assay is classed as biochemical. The settings on record: read-out: Summary of MMP-3 Activity for Compounds (IC50 MMP-3, group). As to the method:
Assay for Determining MMP-3 Inhibition
The typical assay for MMP-3 activity is carried out in assay buffer comprised of 50 mM MES, pH 6.0, 10 mM CaCl2 and 0.05% Brij-35. Different concentrations of tested compounds are prepared in assay buffer in 50 μl aliquots. 10 μl of a 100 nM stock solution of the catalytic domain of MMP-3 enzyme (Biomol, Cat. No. SE-109) is added to the compound solution. The mixture of enzyme and compound in assay buffer is thoroughly mixed and incubated for 10 min at room temperature. Upon the completion of incubation, the assay is started by addition of 40 μl of a 12.5 μM stock solution of NFF-3 fluorescent substrate (Calbiochem, Cat. No. 480455). The time-dependent increase in fluorescence is measured at the 330 nm excitation and 390 nm emission by an automatic plate multireader. The IC50 values are calculated from the initial reaction rates.

The target of assay [2] is T2, catalytic domain of MMP-13 enzyme (Homo sapiens, UniProt P45452).
T2 construct: stock solution of catalytic domain of MMP-13 enzyme (produced by Alantos or commercially available from Invitek); purchased Invitek (Berlin) 30100812
In words: Assay for determining MMP-13 inhibition (fluorescent substrate). The settings on record: read-out: Summary of MMP-13 Activity for Compounds (IC50 MMP-13, group). The assay is classed as biochemical. As to the method: Assay for Determining MMP-13 Inhibition
The typical assay for MMP-13 activity is carried out in assay buffer comprised of 50 mM Tris, pH 7.5, 150 mM NaCl, 5 mM CaCl2 and 0.05% Brij-35. Different concentrations of tested compounds are prepared in assay buffer in 50 μl aliquots. 10 μl of a 50 nM stock solution of catalytic domain of MMP-13 enzyme (produced by Alantos or commercially available from Invitek (Berlin), Cat. No. 30100812) is added to the compound solution. The mixture of enzyme and compound in assay buffer is thoroughly mixed and incubated for 10 min at room temperature. Upon the completion of incubation, the assay is started by addition of 40 μl of a 12.5 μM stock solution of MMP-13 fluorescent substrate (Calbiochem, Cat. No. 444235). The time-dependent increase in fluorescence is measured at the 320 nm excitation and 390 nm emission by automatic plate multireader. The IC50 values are calculated from the initial reaction rates.

SMILES strings stand for the structures.

T1 sequence (P08254 100-272 limits assumed): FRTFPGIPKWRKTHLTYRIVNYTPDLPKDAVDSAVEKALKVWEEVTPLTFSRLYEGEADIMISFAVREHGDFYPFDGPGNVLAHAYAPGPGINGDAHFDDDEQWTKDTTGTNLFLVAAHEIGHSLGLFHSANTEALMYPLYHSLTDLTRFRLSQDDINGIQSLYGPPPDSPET

One may read the IC50 as the concentration needed to halve the response being measured. With `Nc1c[nH]c2c(C(=O)NCc3ccc4c(c3)NC(=O)CO4)ncnc12` [Example 15], the half-inhibitory concentration (IC50) in assay [1] and in assay [2] was 101 to 20000 nM in each case.

Regarding `O=C(O)c1c[nH]c2c(C(=O)NCc3ccc(F)cc3)ncnc12` [Example 19], the IC50 in assay [1] and in assay [2] was 101 to 20000 nM in each case.

For `O=C1COc2ccc(CNC(=O)c3ncnc4c(NS(=O)(=O)c5ccc(Cl)cc5)c[nH]c34)cc2N1` [Example 28], the IC50 in assay [1] and in assay [2] was 101 to 20000 nM in each case.

On to `Nc1n[nH]c2c(C(=O)NCc3ccc(F)c(Cl)c3)ncnc12` [Example 22], for which the IC50 in assay [1] and in assay [2] was 101 to 20000 nM each time.

With `CC(C)(C)OC(=O)Nc1c[nH]c2c(C(=O)NCc3ccc4c(c3)NC(=O)CO4)ncnc12` [Example 1], the IC50 in assay [1] lay in the range of 101 to 20000 nM.

With `CCOC(=O)c1c[nH]c2c(C(=O)NCc3ccc4c(c3)NC(=O)CO4)ncnc12` [Example 8], the values for the half-inhibitory concentration (IC50) in assay [1] and in assay [2] were 3 to 100 nM and 101 to 20000 nM, respectively.

For `O=C(NCc1ccc(F)c(Cl)c1)c1ncnc2c(Br)c[nH]c12` [Example 4], the IC50 in assay [1] and in assay [2] was 101 to 20000 nM each time.

As for `O=C1COc2ccc(CNC(=O)c3ncnc4c(C(=O)O)c[nH]c34)cc2N1` [Example 21], the IC50 is 3 to 100 nM in assay [1] and 101 to 20000 nM in assay [2].

Regarding `O=C(NCc1ccc(F)cc1)c1ncnc2c(Br)c[nH]c12` [Example 5], the IC50 in assay [1] and in assay [2] was 101 to 20000 nM throughout.

Regarding `Nc1n[nH]c2c(C(=O)NCc3ccc4c(c3)NC(=O)CO4)ncnc12` [Example 23], the values for the IC50 in assay [1] and in assay [2] were 101 to 20000 nM and 3 to 100 nM, respectively.

For `O=C(O)c1c[nH]c2c(C(=O)NCc3ccc(F)c(Cl)c3)ncnc12` [Example 20], the IC50 in assay [1] and in assay [2] was 101 to 20000 nM throughout.

In the case of `CS(=O)(=O)Nc1c[nH]c2c(C(=O)NCc3ccc4c(c3)NC(=O)CO4)ncnc12` [Example 25], the IC50 in assay [1] was 3 to 100 nM; in assay [2] it was 101 to 20000 nM.

Regarding `O=C1COc2ccc(CNC(=O)c3ncnc4nc[nH]c34)cc2N1` [Example 9], the IC50 in assay [1] and in assay [2] was 101 to 20000 nM in each case.

Regarding `O=C1COc2ccc(CNC(=O)c3ncnc4c(NS(=O)(=O)c5cccs5)c[nH]c34)cc2N1` [Example 26], the IC50 in assay [1] and in assay [2] was 101 to 20000 nM throughout.

With `O=C1COc2ccc(CNC(=O)c3ncnc4cc[nH]c34)cc2N1` [Example 13], the IC50 in assay [1] and in assay [2] was 101 to 20000 nM each time.

`O=C1COc2ccc(CNC(=O)c3ncnc4c([N+](=O)[O-])c[nH]c34)cc2N1` [Example 6]: the IC50 in assay [1] and in assay [2] was 101 to 20000 nM in each case.

`O=C(NCc1ccc(F)c(Cl)c1)c1ncnc2c([N+](=O)[O-])c[nH]c12` [Example 7]: the IC50 in assay [1] and in assay [2] was 101 to 20000 nM throughout.

As to `O=C1COc2ccc(CNC(=O)c3ncnc4c(NS(=O)(=O)Cc5ccccc5)c[nH]c34)cc2N1` [Example 27], the IC50 in assay [1] and in assay [2] was 101 to 20000 nM throughout.
